Molecules are shown by their SMILES.

Broadly, the ED50 is the dose that gives a 50% effect, or the effect in half of the subjects. High values mean weaker potency, low ones greater potency. By TD50 is commonly meant the 50% point of the dose-response relation for the toxic effect studied.

Series [1] deals with male Swiss albino mice (CD-1). Description: Psychomotor seizure test 6 Hz (32 mA). The class given is in vivo. In short, it runs like this:
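Compounds given i.p. in 1% aqueous Tween 30 min before a 3 s ocular stimulus (32 mA and/or 44 mA, 6 pulses/s) after lidocaine; mice normal within 10 s counted protected. ED50 from 3-4 groups of 6 mice; screening on groups of 4.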

For series [2], the system named is male Swiss albino mice (CD-1). Description: Subcutaneous pentylenetetrazole seizure test (scPTZ). The class given is in vivo. The procedure, abridged:
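Compounds given i.p. in 1% aqueous Tween 30 min before s.c. PTZ at 100 mg/kg. Mice observed 30 min for clonic seizures (whole-body clonus ≥3 s with loss of righting reflex); absence counted as protection. ED50 from 3-4 groups of 6 mice; screening in groups of 4.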

Series [3] can be described thus: Rotarod test (motor coordination). Format: in vivo. The note with it: male, Swiss albino (CD-1), mouse, in vivo, ip, mice. In short, it runs like this:
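Compounds were given i.p. in 1% aqueous Tween as single doses 30 min before testing, 4 mice per group, after training the day before. Mice were tested on a 2 cm rod at 10 rpm for 60 s, and failure to stay on for 1 min counted as impairment. Statistics: one-way ANOVA with Dunnett's test, p<0.05.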
On the technique in general: In the rotarod test animals must keep their balance on a rotating rod.

The subject of series [4] is Ca2+ channel type L (diltiazem binding site). Description: Ca2+ channel type L (diltiazem binding site) affinity study. The note with it: 100 μM, rat cerebral cortex. The text has this:
A unique feature of the compound 6 representing compounds of formula (II) according to the invention is the inhibition of calcium currents by blocking the transient receptor potential vanilloid type 1 (TRPV1). This effect has not been disclosed for known AEDs. TRPV1 receptor antagonism may determine the antinociceptive effect of the compounds disclosed herein. The role of the TRPV1 receptor in conduction of pain stimuli has been well documented in specialist literature (Szallasi, A.; Cortright, D. N.; Blum, C. A.; Eid, S. R. Nat. Rev. Drug. Discov. 2007, 6, 357-372). The compounds according to the invention are characterized by a complex mechanism of action, which is not described for known anticonvulsants. It should be emphasized, however, that further in vitro studies may reveal further molecular targets responsible for the pharmacological action of substances being the subject of current patent claim. The results of binding studies (sodium channel, calcium channel) and functional tests (TRPV1 receptor) for compound 6 are shown in Table 3.

Series [5] concerns the target T1, CYP3A4 (Homo sapiens, UniProt P08684).
T1 construct: purchased Promega (Madison, WI, USA)
Description: CYP3A4 P450-Glo luminescence test. Format: in vitro ADME. How it is done: Effect of compound 6 on cytochrome P-450 3A4 and 2D6 activity. The research was conducted using commercial luminescence tests CYP3A4 P450-Glo™ and CYP2D6 P450-Glo™ from Promega (Madison, WI, USA) based on the methodology described in the literature (Socała, K.; Mogilski, S.; Pieróg, M.; Nieoczym, D.; Abram, M.; Szulczyk, B.; Lubelska, A.; Latacz, G.; Doboszewska, U.; Wlaź, P.; Kamiński, K. ACS Chem. Neurosci. 2018, doi: 10.1021/acschemneuro.8b00476; Latacz, G.; Lubelska, A.; Jastrzȩbska-Wiȩek, M.; Partyka, A.; Sobato, A.; Olejarz, A.; Kucwaj-Brysz, K.; Satata, G.; Bojarski, A. J.; Wesołowska, A.; Kieć-Kononowicz, K.; Handzlik, J. Chem. Biol. Drug. Des. 2017, 90, 1295-1306). The CYP isoforms selected for study are responsible for the metabolism of approximately 40-50% of the drugs available on the market, and their stimulation or inhibition determines the majority of metabolic drug interactions. […] In summary, the results obtained indicate a low probability of potential metabolic interactions caused by 6.

Where [6] appears, read: screening, 100 mg/kg, time point 0.5 h.

T1 sequence (P08684 whole entry): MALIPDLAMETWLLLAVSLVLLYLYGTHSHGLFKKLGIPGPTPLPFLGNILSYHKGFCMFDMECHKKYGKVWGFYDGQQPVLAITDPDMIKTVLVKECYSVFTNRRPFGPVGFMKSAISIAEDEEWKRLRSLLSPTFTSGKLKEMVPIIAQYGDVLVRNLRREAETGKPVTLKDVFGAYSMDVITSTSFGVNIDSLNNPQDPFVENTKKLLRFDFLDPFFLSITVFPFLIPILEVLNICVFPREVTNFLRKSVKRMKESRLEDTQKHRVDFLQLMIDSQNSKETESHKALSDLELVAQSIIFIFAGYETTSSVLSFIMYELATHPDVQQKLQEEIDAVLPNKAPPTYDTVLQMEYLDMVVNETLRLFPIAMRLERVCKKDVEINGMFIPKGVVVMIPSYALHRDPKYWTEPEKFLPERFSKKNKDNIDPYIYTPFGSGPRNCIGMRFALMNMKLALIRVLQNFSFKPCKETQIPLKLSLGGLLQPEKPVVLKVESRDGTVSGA

Regarding `O=C(C(c1ccccc1)N1C(=O)CCC1=O)N1CCN(c2cccc(C(F)(F)F)c2)CC1` (racemic) [Compound 6, 1-(2-Oxo-1-phenyl-2-(4-(3-(trifluoromethyl)phenyl)piperazin-1-yl)ethyl)pyrrolidine-2,5-dione], the ED50 amounted to 22.4 mg/kg in series [1] (Mus musculus, ip, 0.5 h, mice) and 59.4 mg/kg in series [2] (Mus musculus, ip, 0.5 h, mice). Besides, the responders at 100 mg/kg was 100% in series [1] (Mus musculus, ip, screening, 100 mg/kg i.p., 0.5 h, mice, read-out: 6 Hz (32 mA): number of mice protected/number of mice tested (converted)) and 100% in series [2] (Mus musculus, ip, screening, 100 mg/kg i.p., 0.5 h, mice, read-out: scPTZ: number of mice protected/number of mice tested (converted)). For the same molecule, the “mice protected in the 6 Hz (32 mA) test” value in series [1] (setting [6]) was 100%. The “mice protected in the scPTZ test” value in series [2] (setting [6]) is given as 100%. The molecule further registered a TD50 at 0.5 h in series [3] of 196 mg/kg. For the same molecule, the “Inhibition of specific control binding, Ca2+ channel type L (diltiazem binding site)” value in series [4] is recorded as 69.6 (100) %. The “effect on CYP3A4 activity” value in series [5] is reported as “no effect”.

These data come from patent publication US12139458B2, “(2,5-dioxopyrrolidin-1-yl)(phenyl)-acetamide derivatives and their use in the treatment of neurological diseases” (UNIWERSYTET JAGIELLONSKI, priority 2019, dated 2024).
